This experiment concerns the target T1, estrogen receptor (Homo sapiens, UniProt P03372).
T1 construct: endogenous in cells; host or cells: ECC-1 cells
T1 sequence (P03372 1-595): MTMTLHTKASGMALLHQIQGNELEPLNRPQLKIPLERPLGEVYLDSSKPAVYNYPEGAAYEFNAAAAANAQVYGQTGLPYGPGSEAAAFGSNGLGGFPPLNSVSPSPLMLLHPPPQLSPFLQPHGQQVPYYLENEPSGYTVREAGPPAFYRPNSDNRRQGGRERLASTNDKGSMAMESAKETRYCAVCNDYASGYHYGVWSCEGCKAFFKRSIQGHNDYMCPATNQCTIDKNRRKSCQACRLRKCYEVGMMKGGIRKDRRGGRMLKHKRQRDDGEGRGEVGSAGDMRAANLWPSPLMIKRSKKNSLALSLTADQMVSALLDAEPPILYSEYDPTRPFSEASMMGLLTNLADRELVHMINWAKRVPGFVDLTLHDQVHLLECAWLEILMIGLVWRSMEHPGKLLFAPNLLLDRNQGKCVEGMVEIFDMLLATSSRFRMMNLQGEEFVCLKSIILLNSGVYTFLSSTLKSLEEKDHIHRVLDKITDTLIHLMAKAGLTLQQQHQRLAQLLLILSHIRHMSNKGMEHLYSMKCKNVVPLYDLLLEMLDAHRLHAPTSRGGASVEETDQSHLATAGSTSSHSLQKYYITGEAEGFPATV
The experiment can be described thus: Alkaline phosphatase (AP) assay in ECC-1 cells, agonist mode (no E2) and antagonist mode (500 pM E2). It is filed as cell-based. To be noted: 3 days, AP activity normalized to 500 pM E2 alone, agonist mode without E2, antagonist mode with 500 pM E2. The method, then: ECC-1 cells were trypsinized and resuspended in hormone-depleted media and plated at a density of 15 k cells per well into a 96-well plate for at least 4 hours. Cells were treated with test compounds in the absence of E2 (for agonist mode) or in the presence of 500 pM E2 (for antagonist mode) for 3 days and plates were subsequently frozen at −80° C. Thawed plates were incubated with a chromogenic substrate of AP, p-nitrophenyl phosphate (Thermo Fisher Scientific), for 40 minutes at 42° C., and absorbances were read at 405 nm. AP activity was normalized to the activity of 500 pM E2 alone.
The compound numbers correspond to the compound numbers of Table 1 and 2. Compounds having an activity designated as “+” provided estrogen receptor agonism having (i) at least 80% increase in the E2-normalized signal in the AP assay (agonist mode) and (ii) no more than 80% reduction in the E2-normalized signal in the AP assay (antagonist mode). Compounds having an activity designated as “++” provided estrogen receptor antagonism having (i) between 10% and 80% increase in the E2-normalized signal in the AP assay (agonist mode) and (ii) between 10% and 80% reduction in the E2-normalized signal in the AP assay (antagonist mode).
Turning to `C[C@@H]1Cc2c([nH]c3ccccc23)[C@@H](c2ccc(CC3CN(CCCF)C3)s2)N1CC(F)F` [Example I-17, 3-({5-[(1S,3R)-2-(2,2-difluoroethyl)-3-methyl-1H,2H,3H,4H,9H-pyrido[3,4-b]indol-1-yl]thiophen-2-yl}methyl)-1-(3-fluoropropyl)azetidine], the “Activity (estrogen receptor modulation, agonism and antagonism)” value (from here on “Activity”) was “+++ (estrogen receptor antagonism (i) with pIC50 greater than 7.5 and at least a 10% reduction in the E2-normalized signal in the AP assay (antagonist mode); and no more than 10% increase in E2-normalized signal in the AP assay (agonist mode))”. On to `C[C@@H]1Cc2c([nH]c3ccccc23)[C@@H](c2cnc(C[C@@H]3CCN(CCCF)C3)s2)N1CC(F)(F)F` [Example I-48, 2-[[(3S)-1-(3-fluoropropyl)pyrrolidin-3-yl]methyl]-5-[(1S,3R)-3-methyl-2-(2,2,2-trifluoroethyl)-1,3,4,9-tetrahydropyrido[3,4-b]indol-1-yl]thiazole], for which the “Activity” value was “++ (estrogen receptor antagonism having (i) between 10% and 80% increase in the E2-normalized signal in the AP assay (agonist mode) and (ii) between 10% and 80% reduction in the E2-normalized signal in the AP assay (antagonist mode))”.

Turning to `C[C@@H]1Cc2c([nH]c3ccccc23)[C@@H](c2ccc(CC3CN(CCC(F)F)C3)s2)N1CC(C)(C)F` [Example I-18, 1-(3,3-difluoropropyl)-3-({5-[(1S,3R)-2-(2-fluoro-2-methylpropyl)-3-methyl-1H,2H,3H,4H,9H-pyrido[3,4-b]indol-1-yl]thiophen-2-yl}methyl)azetidine], the “Activity” value was “++ (estrogen receptor antagonism having (i) between 10% and 80% increase in the E2-normalized signal in the AP assay (agonist mode) and (ii) between 10% and 80% reduction in the E2-normalized signal in the AP assay (antagonist mode))”. As for `C[C@@H]1Cc2c([nH]c3ccccc23)[C@@H](c2ncc(CC3CN(CCC(F)F)C3)s2)N1CC(F)F` [Example I-35, 2-[(1S,3R)-2-(2,2-difluoroethyl)-3-methyl-1,3,4,9-tetrahydropyrido[3,4-b]indol-1-yl]-5-[[1-(3,3-difluoropropyl)azetidin-3-yl]methyl]thiazole], the “Activity” value was “++ (estrogen receptor antagonism having (i) between 10% and 80% increase in the E2-normalized signal in the AP assay (agonist mode) and (ii) between 10% and 80% reduction in the E2-normalized signal in the AP assay (antagonist mode))”.

As for `C[C@@H]1CCN(CCCc2ccc([C@@H]3c4[nH]c5ccccc5c4C[C@@H](C)N3CC(C)(C)F)s2)C1` [Example I-26, (3R)-1-(3-{5-[(1S,3R)-2-(2-fluoro-2-methylpropyl)-3-methyl-1H,2H,3H,4H,9H-pyrido[3,4-b]indol-1-yl]thiophen-2-yl}propyl)-3-methylpyrrolidine], the “Activity” value is “++ (estrogen receptor antagonism having (i) between 10% and 80% increase in the E2-normalized signal in the AP assay (agonist mode) and (ii) between 10% and 80% reduction in the E2-normalized signal in the AP assay (antagonist mode))”.

In the case of `CCN1CCN(c2ccc([C@@H]3c4[nH]c5ccccc5c4C[C@@H](C)N3CC(C)(C)F)s2)CC1` [Example I-74, (1S,3R)-1-[5-(4-ethylpiperazin-1-yl)-2-thienyl]-2-(2-fluoro-2-methyl-propyl)-3-methyl-1,3,4,9-tetrahydropyrido[3,4-b]indole], the “Activity” value is “+ (estrogen receptor agonism having (i) at least 80% increase in the E2-normalized signal in the AP assay (agonist mode) and (ii) no more than 80% reduction in the E2-normalized signal in the AP assay (antagonist mode))”. As for `CCCN1CC(Cc2sc([C@@H]3c4[nH]c5ccccc5c4C[C@@H](C)N3CC(C)(C)F)cc2C)C1` [Example I-8, (1S,3R)-2-(2-fluoro-2-methylpropyl)-3-methyl-1-(4-methyl-5-((1-propylazetidin-3-yl)methyl)thiophen-2-yl)-2,3,4,9-tetrahydro-1H-pyrido[3,4-b]indole], the “Activity” value was “++ (estrogen receptor antagonism having (i) between 10% and 80% increase in the E2-normalized signal in the AP assay (agonist mode) and (ii) between 10% and 80% reduction in the E2-normalized signal in the AP assay (antagonist mode))”. Consider `C[C@@H]1Cc2c([nH]c3ccccc23)[C@@H](c2cnc(CC3CN(CCCF)C3)s2)N1CC(C)(C)F` [Example I-14, 5-[(1S,3R)-2-(2-fluoro-2-methylpropyl)-3-methyl-1H,2H,3H,4H,9H-pyrido[3,4-b]indol-1-yl]-2-{[1-(3-fluoropropyl)azetidin-3-yl]methyl}-1,3-thiazole], for which the “Activity” value was “++ (estrogen receptor antagonism having (i) between 10% and 80% increase in the E2-normalized signal in the AP assay (agonist mode) and (ii) between 10% and 80% reduction in the E2-normalized signal in the AP assay (antagonist mode))”.

For the compound `CCCN1CC(Cc2ncc([C@@H]3c4[nH]c5ccccc5c4C[C@@H](C)N3CC(C)(C)F)s2)C1` [Example I-7, 5-((1S,3R)-2-(2-fluoro-2-methylpropyl)-3-methyl-2,3,4,9-tetrahydro-1H-pyrido[3,4-b]indol-1-yl)-2-((1-propylazetidin-3-yl)methyl)thiazole], the “Activity” value is “++ (estrogen receptor antagonism having (i) between 10% and 80% increase in the E2-normalized signal in the AP assay (agonist mode) and (ii) between 10% and 80% reduction in the E2-normalized signal in the AP assay (antagonist mode))”. Take `C[C@@H]1Cc2c([nH]c3ccccc23)[C@@H](c2ccc(C3CCN(CCF)CC3)s2)N1CC(C)(C)F` [Example I-68, (1S,3R)-1-[5-[1-(2-fluoroethyl)-4-piperidyl]-2-thienyl]-2-(2-fluoro-2-methyl-propyl)-3-methyl-1,3,4,9-tetrahydropyrido[3,4-b]indole]: the “Activity” value is “++ (estrogen receptor antagonism having (i) between 10% and 80% increase in the E2-normalized signal in the AP assay (agonist mode) and (ii) between 10% and 80% reduction in the E2-normalized signal in the AP assay (antagonist mode))”. Regarding `CCN1CCC(c2ccc([C@@H]3c4[nH]c5ccccc5c4C[C@@H](C)N3CC(C)(C)F)s2)CC1` [Example I-69, (1S,3R)-1-(5-(1-ethylpiperidin-4-yl)thiophen-2-yl)-2-(2-fluoro-2-methylpropyl)-3-methyl-2,3,4,9-tetrahydro-1H-pyrido[3,4-b]indole], the “Activity” value was “++ (estrogen receptor antagonism having (i) between 10% and 80% increase in the E2-normalized signal in the AP assay (agonist mode) and (ii) between 10% and 80% reduction in the E2-normalized signal in the AP assay (antagonist mode))”. Regarding `C[C@@H]1Cc2c([nH]c3ccccc23)[C@@H](c2ccc(CC3CN(CCC#N)C3)s2)N1CC(C)(C)F` [Example I-56, 3-[3-[[5-[(1S,3R)-2-(2-fluoro-2-methyl-propyl)-3-methyl-1,3,4,9-tetrahydropyrido[3,4-b]indol-1-yl]-2-thienyl]methyl]azetidin-1-yl]propanenitrile], the “Activity” value was “++ (estrogen receptor antagonism having (i) between 10% and 80% increase in the E2-normalized signal in the AP assay (agonist mode) and (ii) between 10% and 80% reduction in the E2-normalized signal in the AP assay (antagonist mode))”. Next, `C[C@@H]1Cc2c([nH]c3ccccc23)[C@@H](c2ncc(CC3CN(CCCF)C3)s2)N1CC(F)F` [Example I-31]: “++ (estrogen receptor antagonism having (i) between 10% and 80% increase in the E2-normalized signal in the AP assay (agonist mode) and (ii) between 10% and 80% reduction in the E2-normalized signal in the AP assay (antagonist mode))”; `C[C@@H]1Cc2c([nH]c3ccccc23)[C@@H](c2cnc(N[C@H]3CCCN(CCCF)C3)s2)N1CC(F)(F)CO` [Example I-66]: “++ (estrogen receptor antagonism having (i) between 10% and 80% increase in the E2-normalized signal in the AP assay (agonist mode) and (ii) between 10% and 80% reduction in the E2-normalized signal in the AP assay (antagonist mode))”.

For `C[C@@H]1Cc2c([nH]c3ccccc23)[C@@H](c2sc(CC3CN(CCCF)C3)cc2F)N1CC(C)(C)F` [Example I-12, 3-({4-fluoro-5-[(1S,3R)-2-(2-fluoro-2-methylpropyl)-3-methyl-1H,2H,3H,4H,9H-pyrido[3,4-b]indol-1-yl]thiophen-2-yl}methyl)-1-(3-fluoropropyl)azetidine], the “Activity” value is “++ (estrogen receptor antagonism having (i) between 10% and 80% increase in the E2-normalized signal in the AP assay (agonist mode) and (ii) between 10% and 80% reduction in the E2-normalized signal in the AP assay (antagonist mode))”.

Values taken from US20260055103A1, “2,3,4,9-TETRAHYDRO-1H-PYRIDO[3,4-B]INDOLE DERIVATIVES AS ESTROGEN RECEPTOR MODULATORS FOR THE TREATMENT OF CANCER” (Olema Pharmaceuticals, Inc., priority 2022, published 2026).
